This is an account of results in US20100233156A1, “Treating Central Nervous System Injury with Beta and Gamma Secretase Inhibitors” (GEORGETOWN UNIVERSITY, priority 2009, published 2010).

Entries after “also recorded” stand apart in the source; their conditions may differ.

In assay [1] the test system is TBI mice (controlled cortical impact). In words: Beam walk test (fine motor coordination) after CCI. The format is in vivo, mouse. The conditions noted are these: for foot faults (beam walk): TBI mice, 50 steps. Here is the method:
To test the effect of β-secretase on TBI outcome, the B-APP cleaving enzyme-1 (BACE1) Bace1^−/− knockout mouse was used. Bace1 is the initial rate-limiting enzyme for Aβ production. Bace1^−/− mice are unable to produce any species of Aβ (Cai et al., Nat. Neurosci. 4:233-4 (2001)), and the absence of Aβx-40 in brain homogenates by ELISA (0.1±0.09 fmol per mg protein) was confirmed. CCI surgery was performed, and the beam walk test was used to detect fine motor coordination aberrations (Fox et al., J. Neurotrauma 15:599-614 (1998)). This test examines the number of errors (foot faults) made by the right hind limb over 50 steps. The mice were trained on the test before injury, and the test was repeated on 1 day, 3 days, 7 days, 14 days, and 21 days after TBI. Injured Bace1^−/− mice made fewer foot faults at multiple time points, with a 38% final improvement over injured Bace1^+/+ mice (FIG. 4, P<0.001).
(§1) The other secretase involved in amyloidogenic processing of APP is γ-secretase, and the pharmacological inhibitor N-[N-(3,5-difluorophenacetyl-L-alanyl)]-S-phenlyglycine t-butyl ester (DAPT) was used to block enzyme activity. […] Each mouse received the initial dose 15 minutes after CCI or sham surgery and then twice daily for 21 days. This dosing regime was implemented because Aβ is known to drop after γ-secretase inhibition before recovering over several hours (Abramowski et al., J. Pharmacol. Exp. Ther. 327:411-24 (2008), El Mouedden et al., Curr. Pharm. Des. 12:671-6 (2006)). To confirm γ-secretase inhibition in DAPT-treated mice, Aβ concentrations were measured. Three hours after final drug administration, Aβ levels were reduced by 25% (13.76±0.8 fmol per mg protein (vehicle-treated TBI mice) versus 10.42±0.4 fmol per mg protein (DAPT-treated TBI mice); P<0.01), and APP carboxy-terminal fragments accumulated.
(§2) On the day after CCI, the first beam walk test was conducted. Vehicle-treated TBI mice made 50±0 foot faults and improved to 43±2 foot faults on the final day of testing (FIG. 9). […] Spatial learning with the Morris water maze was also tested.

Assay [2] has the same test system. In words: Histological assessment of lesion volume and NeuN stereology count of CA1 neurons. The format is in vivo, mouse. The source says:
(§3) The representative MRI images show a vehicle-treated TBI mouse with the brain lesion visible through 4 mm (8 mm×0.5 mm longitudinal sections) of tissue, whereas DAPT treatment results in damage through only 1.5 mm (3 mm×0.5 mm sections) (FIG. 13). […] The damage to the hippocampus was not as extensive as that seen in the Bacel study; however, cell loss in the CA1 region of mice after TBI was clearly visible (FIG. 16). This allowed quantification of cell loss in the hippocampus (FIG. 17). Neurons were stained with NeuN, a neuronal marker, and an unbiased stereology count was performed. TBI caused a 34% decrease in NeuN-positive cells in the CA1 region of the ipsilateral hippocampus (P<0.05). DAPT treatment attenuated this cell loss, resulting in a 10% reduction in CA1 neurons (P<0.05 versus vehicle-treated TBI mice).

Assay [3] has the same test system. In words: Morris water maze (spatial learning) after CCI. It is filed as in vivo, mouse. How it is done:
A Morris water maze paradigm was used to assess spatial learning by training mice to locate a hidden, submerged platform using extramaze visual information (Fox et al., J. Neurotrauma 15:599-614 (1998)). The test was conducted 15-18 days after injury, and each mouse was tested for four trials per day for four consecutive days. Uninjured Bace1^+/+ mice were used as a behavioral control. Injured Bace1^+/+ mice had significant learning impairments on all 4 days of testing compared to uninjured Bace1^+/+ mice (P<0.01). Injured Bace1^−/− mice, however, improved rapidly, and on the final day of testing were indistinguishable from uninjured mice (FIG. 5, P<0.01). All groups had similar escape latencies when presented with a visual platform probe test (uninjured Bace1^+/+, 23.4±6.3 seconds; injured Bace1^+/+, 21.1±7.8 seconds; injured Bace1^−/−, 21.2±4.9 seconds).
as §1, §2

Assay [4] has the same test system. Nature of the assay: MRI of brain lesion 21 days after CCI. It is filed as in vivo, mouse.
From the text: Five mice in each TBI group were randomly chosen for T2-weighted magnetic resonance imaging (MRI) analysis at 21 days after trauma. […] This was confirmed by fixed brain tissue sections (FIG. 7). […] Total lesion volume was reduced by 30% in […] (FIG. 9, P<0.05).
as §3

The next assay has as its system mouse model of stroke. The conditions noted are these: after ischemia and reperfusion; Arumugam et al. 2006; cited from earlier work.
The subject of the next assay is γ-secretase. In words: Aβ concentrations in DAPT-treated TBI mice, to confirm γ-secretase inhibition. The format is in vivo, mouse. The conditions noted are these: three hours after final drug administration. Here is the method: as §1

Take `C[C@H](NC(=O)Cc1cc(F)cc(F)c1)C(=O)N[C@H](C(=O)OC(C)(C)C)c1ccccc1` [DAPT, N-[N-(3,5-Difluorophenacetyl)-L-alanyl]-S-phenylglycine t-butyl ester]: in assay [1] (21 days after injury), the “improvement in foot faults over vehicle-treated TBI mice” value was determined as 42% and the “foot faults (beam walk)” value came out at 25±5 foot faults. In assay [1] (day after surgery), the “foot faults (beam walk)” value stood at 48±1 foot faults. In addition, the “recovery of fine motor coordination on beamwalk test” value in assay [1] (after 21 days, in words) is recorded as “Recovery is improved”. Also, the “tissue sparing (histology)” value in assay [2] (H&E sections, in words) was “spared large areas of cortex and subcortical white matter tracts; also recorded: Subcortical white matter tracts are spared”. For the same compound, the “reduction in CA1 neurons (NeuN-positive cells, ipsilateral hippocampus)” value in assay [2] (TBI mice, stereology count) is 10%. Besides, the “neuronal populations in ipsilateral CA1 versus contralateral” value in assay [2] (stereology cell counts, in words) is “This reduction is prevented”. In addition, the lesion volume entry in assay [2] (versus vehicle control, in words) is reported as “reduced”. The lesion volume decreased in assay [2] (versus vehicle-treated TBI mice) is on record as greater than 70%. The “escape latency, visible platform probe” value in assay [3] (TBI mice) is 17.5 ± 3.7 s. The “spatial learning in Morris water maze” value in assay [3] (TBI mice, 4 days of test, in words) was “indistinguishable from sham-injured mice; also recorded: prevents these deficits”. Moreover, the “escape latency, visible platform probe” value in assay [3] (sham-operated mice) amounted to 13.6 ± 3.4 s. Moreover, the “lesion size by MRI” value in assay [4] (injured mice, in words) was “substantially reduced lesion size”. Also, in assay [4] (representative images, 0.5 mm sections), the “depth of tissue through which damage is visible on MRI” value is 1.5 mm. Further, in the assay with mouse model of stroke, the infarct area entry is listed as “reduced infarct area” and the neurological function entry is “improved neurological function”. Further, the Aβ levels reduced with γ-secretase (DAPT 30 mg per kg orally twice daily for 21 days, versus vehicle-treated TBI mice) is 25%. Further, in the assay on γ-secretase (DAPT-treated TBI mice), the APP carboxy-terminal fragments result is on record as “accumulated” and the Aβ concentration was 10.42±0.4 fmol per mg protein.
